Inhibition and IC50 data for 6 compounds are collected here from patent US9000045B2, “CETP activity inhibitors” (Japan Tobacco Inc., priority 1997, dated 2015).

Test [1] concerns the target T1, CETP (Homo sapiens, UniProt P11597).
T1 sequence (P11597 18-493): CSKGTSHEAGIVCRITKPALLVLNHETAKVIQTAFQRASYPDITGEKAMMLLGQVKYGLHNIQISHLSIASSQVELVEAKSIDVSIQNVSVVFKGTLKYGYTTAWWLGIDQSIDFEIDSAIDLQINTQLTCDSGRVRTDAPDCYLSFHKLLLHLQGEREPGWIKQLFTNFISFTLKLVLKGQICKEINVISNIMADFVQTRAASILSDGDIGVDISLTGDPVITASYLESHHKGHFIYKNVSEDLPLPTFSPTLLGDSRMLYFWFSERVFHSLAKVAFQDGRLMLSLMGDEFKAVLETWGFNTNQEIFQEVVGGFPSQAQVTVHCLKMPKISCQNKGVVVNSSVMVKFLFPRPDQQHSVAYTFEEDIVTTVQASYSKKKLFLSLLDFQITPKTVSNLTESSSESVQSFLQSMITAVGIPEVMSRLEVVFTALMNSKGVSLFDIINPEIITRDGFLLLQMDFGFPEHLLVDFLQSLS
Kind of test: Ex vivo CETP activity inhibitory effect of plasma from transgenic mice. The note with it: mouse, po, p.o., 6 hours after administration, transgenic mice with human CETP gene, read-out: CETP activity inhibitory rate in plasma from transgenic mouse. Further details: from tissue; host or cells: plasma of transgenic mice carrying the human CETP gene. The method, then:
Potassium bromide (KBr) was added to the plasma of healthy subjects (40 ml) to adjust specific gravity to d=1.125 g/ml. Density gradient centrifugation (227,000×g, 4° C., 17 hours) was conducted to obtain a fraction with specific gravity d>1.125 g/ml (HDL3 fraction). The fraction thus obtained was dialyzed against a PBS solution [10 mM Na2HPO4/10 mM NaH2PO4/0.15 M NaCl/1 mM EDTA (pH 7.4)]. Then, tritium-labeled cholesterol (10 nM) (50.3 Ci/mM) was dissolved in 95% ethanol and added gradually to the above HDL3 fraction under stirring. The solution was incubated for 18 hours at 37° C. [Tritium-labeled cholesterol was esterified by this procedure by the action of lecithin:cholesterol acyltransferase (LCAT) present on the surface of HDL3 and taken up into the interior of HDL3 as tritium-labeled cholesterylester ([^3H]CE)]. After incubation, KBr was added and specific gravity was adjusted to d=1.21 g/ml. Density gradient centrifugation (227,000×g, 4° C., 17 hours) was conducted and the fraction with d<1.21 g/ml was harvested. The fraction thus obtained was dialyzed against the above PBS solution to obtain HDL3 that took up [^3H]CE ([^3H]CE-HDL3, specific gravity: 1.125<d<1.21, specific activity: 101,000 dpm/nM), which served as donor lipoprotein.
Physiological saline (specific gravity d=1.006 g/ml) was layered upon the plasma of healthy subjects (100 ml). Density gradient centrifugation (227,000×g, 4° C., 4 hours) was conducted and the fraction with specific gravity d>1.006 g/ml was harvested. KBr was added to the fraction thus obtained to adjust specific gravity to d=1.063 g/ml and density gradient centrifugation (227,000×g, 4° C., 20 hours) was conducted to harvest the fraction with specific gravity […]. The thus-obtained fraction was dialyzed against the above PBS solution to obtain fractions containing IDL and LDL (specific gravity: 1.006<d<1.063), which served as acceptor lipoprotein.
Samples were suspended in a 0.5% methylcellulose solution and administered orally using a plastic probe to transgenic mice having introduced human CETP gene (hereafter referred to as mice; prepared using the method described in Japanese Patent Application No. Hei 8-130660), which had been fasted overnight. Blood was collected before administration, and 6 hours after administration CETP activity in the plasma was determined using the following method.
Donor lipoprotein ([^3H]CE-HDL3, containing 0.21 μg cholesterol) obtained in the above (1), acceptor lipoprotein obtained in the above (2) (containing 21 μg of cholesterol), and 0.9 μl of mice plasma were added to microtubes. A total volume was adjusted to 600 μl/tube with a TBS solution [10 mM Tris/0.15 M NaCl (pH 7.4)]. The microtubes were incubated for 15 hours at 37° C. or 4° C. Then, an ice-cooled TBS solution (400 μl/tube) and a 0.3% dextran sulfate solution (100 μl/tube) containing 0.15 M magnesium chloride were added to the microtubes and mixed well. After allowing the microtubes to stand for 30 minutes at 4° C., centrifugation (8,000 rpm, 4° C., 10 minutes) was carried out and radioactivity of the resulting supernatant (HDL fraction) was determined with a scintillation counter.

The target of test [2] is T1, CETP. Kind of test: In vitro CETP activity inhibitory effect in whole plasma. The format is biochemical. Details: Plasma containing [^3H]CE-HDL3 (600,000 dpm/ml) was prepared by adding donor lipoprotein obtained in the above (1) to plasma from healthy subjects; from tissue; host or cells: whole plasma of healthy subjects. Particulars: plasma from healthy subjects containing [3H]CE-HDL3, incubated 4 hours at 37° C.; read-out: CETP activity inhibition in whole plasma IC50. Put shortly: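 HDL3 was labelled with tritiated cholesterol (10 nM) for 18 h at 37° C in PBS with EDTA (pH 7.4). Test samples were in 1:1 N-methylpyrrolidone/PEG 400 and assayed in whole plasma. IC50 was calculated from % inhibition of CETP activity.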

Molecules are shown by their SMILES.

In the case of `COc1ccc(NC(=O)Sc2ccccc2NC(=O)C2(CCC(C)C)CCCCC2)cc1` [Example 25-100], the inhibition at 30 mg/kg in test [1] is 25%. For the same compound, the IC50 in test [2] came out at 16 µM.

`CC(C)CCC1(C(=O)Nc2ccccc2SC(=O)C(C)(C)O)CCCCC1` [Example 46]: in test [1], the inhibition at 10 mg/kg amounted to 22% and the inhibition at 30 mg/kg stood at 48%. Further, the IC50 in test [2] turned out to be 5 µM.

For `COCC(=O)Sc1ccccc1NC(=O)C1(CCC(C)C)CCCCC1` [Example 37], in test [1], the inhibition at 10 mg/kg amounted to 18%, the inhibition at 30 mg/kg was 42% and the inhibition at 100 mg/kg came out at 47%. Besides, the half-maximal inhibitory concentration (IC50) in test [2] came to 7 µM.

For `CC(=O)Sc1ccccc1NC(=O)C1(CCC(C)C)CCCCC1` [Example 25, S[2-(1-isopentylcyclohexanecarbonylamino)phenyl]thioacetate], in test [1], the inhibition at 10 mg/kg worked out at 19%, the inhibition at 30 mg/kg amounted to 45% and the inhibition at 100 mg/kg came out at 52%. The IC50 in test [2] worked out at 11 µM.

As to `CC(C)CCC1(C(=O)Nc2ccccc2SC(=O)c2ccc([N+](=O)[O-])cc2)CCCCC1` [Example 25-46], the inhibition at 100 mg/kg in test [1] amounted to 35%. Moreover, in test [2], the IC50 was 9 µM.

With `CSCC[C@H](NC(C)=O)C(=O)Sc1ccccc1NC(=O)C1(CCC(C)C)CCCCC1` [Example 25-57], in test [1], the inhibition at 10 mg/kg is 18% and the inhibition at 30 mg/kg turned out to be 46%. The half-maximal inhibitory concentration (IC50) in test [2] was determined as 7 µM.

A word on the IC50: it is the concentration needed to halve the response being measured.
